Reference: patent US7910624B1, “Compositions for the treatment of blood disorders” (The Trustees of Boston University, priority 1995, dated 2011)

Legend:
[1] = system: γ-globin promoter fragment containing FRE-γ1; assay: Gel mobility shift assay with nuclear extracts of patients' erythroblasts; set-up: species or system human; details: nuclear extracts of thalassemic patients on therapy, 21 and 43 hours after
Method: To gain further information on transcription factors binding to FRE elements, gel mobility shift assays with were carried out with promoter fragments containing FRE-γ1. The 3′ half of the DNA sequence of FRE-γ1 is overlapped with that of the stage-selector element (SSE) which has recently been identified in the γ-globin promoter and may be competitively silencing γ-globin gene expression in the fetal stage. Nuclear extracts were purified from a human erythroleukemia cell line, K562, and from erythroblasts that were isolated from peripheral blood or bone marrow of patients. Nuclear extracts used for gel mobility shift assays were prepared as described (Andrews et al., Nucl. Acids Res. 19:2499-2500, 1991). Oligonucleotides, corresponding to the nucleotide sequence from −39 to −78 of the γ-globin promoter (FIG. 13), were annealed to form double-stranded DNA and 5′-labeled with T4 polynucleotide kinase. Prior to addition of a labeled probe, 5 μg of nuclear extracts were mixed with 500 ng of poly(dA-dT) in 20 μl of a binding buffer (25 mM Hepes, pH 7.5, 50 mM KCl, 12.5 mM MgCl2, 1 mM DTT, 10 mM ZnSO4, 5% (v/v) glycerol, 1% (v/v) NP-40) at room temperature for 30 minutes. After addition of a labeled probe of 5×10^6 cpm, the mixture was incubated for 30 minutes at room temperature. […]

[2] = system: human erythroid cells; assay: DNA fragmentation by flow cytometry (propidium iodide); format: cell-based; details: for effect in DNA fragmentation assays: summary statement
Method: Such activities might limit their utility for treatment of anemias such as occur in thalassemia, but alternatively would be useful for anticancer effects. To determine cell viability, human erythroid cells were cultured in the presence and absence of these compounds for 4 days and the amount of DNA fragmentation which occurred was measured.
Flow cytometric determination of DNA profiles and DNA fragmentation were determined. Cytometric analysis was performed with a FACScan (Becton Dickenson Instruments; Columbia, Md.). The data analysis and display were performed using the Cell-Fit software program. Approximately 0.5×10^6 cells were washed twice with PBS and resuspended in 1 ml of 1% sodium citrate, 0.1% Triton X-100 and […] of propidium iodide/ml. Resulting permeabilized cells were kept in the dark at 4° C. overnight before DNA profile or DNA fragmentation analysis (Table 4).

[3] = system: Human mammary carcinoma cells (MCF-7); assay: Human mammary carcinoma cell viability by FACS; format: cell-based; details: 4 days
Method: Human mammary carcinoma cells (MCF-7) were cultured alone (controls) and with arginine butyrate or isobutyramide for 4 days. Viability was assayed by FACS after incubation with a fluorescent dye taken up by viable cells (FIG. 6). Growth was decreased by 50% with isobutyramide at 1.0 mM, about 60% with arginine butyrate at 0.5 mM, and greater than 90% with arginine butyrate at 1.0 mM.

[4] = system: proximal promoter of the gamma globin gene in K562 cells; assay: Gamma globin promoter-neomycin (NEO) transfection, colony survival in G418; format: cell-based, human; details: 1 mM, 8 weeks
Method: Gamma globin promoter-neomycin transfection experiments were performed to determine if compounds act by inducing an increase in activity from the proximal promoter of the gamma globin gene. Constructs containing 61 by of the proximal gamma globin promoter were linked to the reporter gene for neomycin phosphotransferase (NEO) and transfected into permissive K562 cells by electroporation. After 18 hours, transfected cells were passed at 10^3 cells per well into RPMI media containing G418 (neomycin), which kills all mammalian cells unless the gene for NEO is expressed. Phenoxyacetic acid and thiophenoxyacetic acid were added to some of the cells plated into the RPMI/G418 media at concentrations of 1 mM. Cultures were incubated for 8 weeks with media changes performed as needed. Colonies which survived and grew in the presence of G418 were scored and the number of such colonies was compared to those generated when the cells were plated into G418 media without the test compounds. No colonies in the 24 wells survived in the absence of compounds. There was a greater than 6-fold (>600%) increase in proportions of colonies surviving the presence of phenoxyacetic acid (6/24 wells) and a three-fold (300%) increase in survival in the presence of thiophenoxyacetic acid (3/24 wells).

[5] = system: BFU-e (burst forming unit-erythroid) colonies from peripheral blood mononuclear cells; assay: Stimulation of erythroid proliferation in cell cultures (BFU-e colony growth); format: cell-based, human; details: 0.1 mM; 13-14 days; compared with control cultures
Method: Peripheral blood was collected from normal volunteers and patients with anemia due to sickle cell disease or thalassemia. Mononuclear cells were isolated by Ficoll-Hypaque (Pharmacia Biotech; Piscataway, N.J.) centrifugation and cultured in Iscove's Modified Dulbecco's Media (IMDM; GIBCO/BRL; Grand Island, N.Y.) supplemented with 10% fetal calf serum, 300 μg/ml glutamine, 3 units/ml IL-3 (Amgen; Thousand Oaks, Calif.), and 2 units/ml erythropoietin (Terry Fox Labs; Vancouver, B.C.). Chemical compounds were obtained from Sigma Chemical (St. Louis, Mo.) or Aldrich Chemical (Milwaukee, Wis.), unless otherwise indicated, and formulated into pharmaceutical compositions by dissolving in aqueous solutions of media or sterile water pH adjusted to about 7.4. Solutions were sterilized by passage at least once through 0.22 micron Nalgene filters and added to cell cultures at final concentrations that are pharmaceutically achievable in vivo (typically between about 0.1 mM to 2.0 mM). Cells were incubated with compounds for between 13-14 days at 37° C. in humidified 5% CO2, and fed and passed, as necessary. Colony growth, proportion of fetal globin-expressing cells and amounts of fetal globin production were assayed. Results are presented in Table 1 as BFU-e stimulation (colony growth).

[6] = 1.0 mM to 2.0 mM, untreated cells 26%
[7] = 2.0 mM, 4 days, controls 26%, 22%

| SMILES | protein-DNA binding activity in gel shift [1] | Degraded DNA ([2]; 0.5 mM, 4 days, controls 26%, 22%) [%] | Degraded DNA [2, 6] [%] | Degraded DNA ([2]; 1.0 mM, 4 days, controls 26%, 22%) [%] | Degraded DNA [2, 7] [%] | effect in DNA fragmentation assays [2] | decrease of growth of MCF-7 ([3]; 0.5 mM) | decrease of growth of MCF-7 ([3]; 1.0 mM) | increase in proportions of colonies surviving G418 [4] [%] | wells with surviving colonies ([4]; 0 of 24 wells without compounds) | increase in proportions of colonies surviving G418 ([4]; no colonies without compounds) | BFU-e Stimulation (colony growth) [5] [%] |
| --- | --- | --- | --- | --- | --- | --- | --- | --- | --- | --- | --- | --- |
| CCCC(=O)O [AB, arginine butyrate] | a new binding activity appeared | 32 | 44 | 34 | 44 | decrease cell viability | about 60% | greater than 90% | – | – | – | – |
| O=C(O)COc1ccccc1 [PAA, Phenoxyacetic acid] | – | – | 20.6 | – | 20.6 | reduce DNA fragmentation | – | – | > 600 | 6/24 | greater than 6 fold | 135 |
